The values that follow come from ChEMBL document CHEMBL4184209, “Identification and initial optimization of inhibitors of Clostridium difficile (C. difficile) toxin B (TcdB)” (Bioorg Med Chem Lett, 2018).

A word on the IC50: it is the concentration that inhibits the measured activity by half.

Activity calls are given as the source filed them.

One data set has as its system Bifidobacterium longum. The experiment in a line: Effect on growth of Bifidobacterium longum at 0.5 to 100 uM incubated for 24 hrs under anaerobic conditions by spectrophotometry. The data set is classed as organism-based.
A further data set has as its system Clostridioides difficile. As to the kind of experiment: Effect on growth of Clostridium difficile at 0.5 to 100 uM incubated for 24 hrs under anaerobic conditions by spectrophotometry. The data set is classed as functional, organism-based.
Another data set concerns Bacteroides fragilis. As to the kind of experiment: Effect on growth of Bacteroides fragilis at 0.5 to 100 uM incubated for 48 hrs under anaerobic conditions by spectrophotometry. The data set is classed as organism-based.
Data set [1] deals with Limosilactobacillus reuteri. As to the kind of experiment: Effect on growth of Lactobacillus reuteri at 0.5 to 100 uM incubated for 24 hrs under anaerobic conditions by spectrophotometry. The data set is classed as organism-based.
A further data set addresses Toxin B (Clostridioides difficile, UniProt P18177). As to the kind of experiment: Inhibition of C-terminal 6-His tagged recombinant Clostridium difficile toxin B catalytic fragment (Met1 to Leu543 residues) assessed as reduction in glucosyltransferase domain UDP-glucose hydrolysis activity using UDP-glucose and ADP Alexa633 tracer incubated fore 3 hrs by fluorescence polarization assay. (Fluorescence polarisation rises when a labelled molecule tumbles more slowly, as on binding a larger partner.)

Sequence of Toxin B (P18177 whole entry, the tested form may be a part): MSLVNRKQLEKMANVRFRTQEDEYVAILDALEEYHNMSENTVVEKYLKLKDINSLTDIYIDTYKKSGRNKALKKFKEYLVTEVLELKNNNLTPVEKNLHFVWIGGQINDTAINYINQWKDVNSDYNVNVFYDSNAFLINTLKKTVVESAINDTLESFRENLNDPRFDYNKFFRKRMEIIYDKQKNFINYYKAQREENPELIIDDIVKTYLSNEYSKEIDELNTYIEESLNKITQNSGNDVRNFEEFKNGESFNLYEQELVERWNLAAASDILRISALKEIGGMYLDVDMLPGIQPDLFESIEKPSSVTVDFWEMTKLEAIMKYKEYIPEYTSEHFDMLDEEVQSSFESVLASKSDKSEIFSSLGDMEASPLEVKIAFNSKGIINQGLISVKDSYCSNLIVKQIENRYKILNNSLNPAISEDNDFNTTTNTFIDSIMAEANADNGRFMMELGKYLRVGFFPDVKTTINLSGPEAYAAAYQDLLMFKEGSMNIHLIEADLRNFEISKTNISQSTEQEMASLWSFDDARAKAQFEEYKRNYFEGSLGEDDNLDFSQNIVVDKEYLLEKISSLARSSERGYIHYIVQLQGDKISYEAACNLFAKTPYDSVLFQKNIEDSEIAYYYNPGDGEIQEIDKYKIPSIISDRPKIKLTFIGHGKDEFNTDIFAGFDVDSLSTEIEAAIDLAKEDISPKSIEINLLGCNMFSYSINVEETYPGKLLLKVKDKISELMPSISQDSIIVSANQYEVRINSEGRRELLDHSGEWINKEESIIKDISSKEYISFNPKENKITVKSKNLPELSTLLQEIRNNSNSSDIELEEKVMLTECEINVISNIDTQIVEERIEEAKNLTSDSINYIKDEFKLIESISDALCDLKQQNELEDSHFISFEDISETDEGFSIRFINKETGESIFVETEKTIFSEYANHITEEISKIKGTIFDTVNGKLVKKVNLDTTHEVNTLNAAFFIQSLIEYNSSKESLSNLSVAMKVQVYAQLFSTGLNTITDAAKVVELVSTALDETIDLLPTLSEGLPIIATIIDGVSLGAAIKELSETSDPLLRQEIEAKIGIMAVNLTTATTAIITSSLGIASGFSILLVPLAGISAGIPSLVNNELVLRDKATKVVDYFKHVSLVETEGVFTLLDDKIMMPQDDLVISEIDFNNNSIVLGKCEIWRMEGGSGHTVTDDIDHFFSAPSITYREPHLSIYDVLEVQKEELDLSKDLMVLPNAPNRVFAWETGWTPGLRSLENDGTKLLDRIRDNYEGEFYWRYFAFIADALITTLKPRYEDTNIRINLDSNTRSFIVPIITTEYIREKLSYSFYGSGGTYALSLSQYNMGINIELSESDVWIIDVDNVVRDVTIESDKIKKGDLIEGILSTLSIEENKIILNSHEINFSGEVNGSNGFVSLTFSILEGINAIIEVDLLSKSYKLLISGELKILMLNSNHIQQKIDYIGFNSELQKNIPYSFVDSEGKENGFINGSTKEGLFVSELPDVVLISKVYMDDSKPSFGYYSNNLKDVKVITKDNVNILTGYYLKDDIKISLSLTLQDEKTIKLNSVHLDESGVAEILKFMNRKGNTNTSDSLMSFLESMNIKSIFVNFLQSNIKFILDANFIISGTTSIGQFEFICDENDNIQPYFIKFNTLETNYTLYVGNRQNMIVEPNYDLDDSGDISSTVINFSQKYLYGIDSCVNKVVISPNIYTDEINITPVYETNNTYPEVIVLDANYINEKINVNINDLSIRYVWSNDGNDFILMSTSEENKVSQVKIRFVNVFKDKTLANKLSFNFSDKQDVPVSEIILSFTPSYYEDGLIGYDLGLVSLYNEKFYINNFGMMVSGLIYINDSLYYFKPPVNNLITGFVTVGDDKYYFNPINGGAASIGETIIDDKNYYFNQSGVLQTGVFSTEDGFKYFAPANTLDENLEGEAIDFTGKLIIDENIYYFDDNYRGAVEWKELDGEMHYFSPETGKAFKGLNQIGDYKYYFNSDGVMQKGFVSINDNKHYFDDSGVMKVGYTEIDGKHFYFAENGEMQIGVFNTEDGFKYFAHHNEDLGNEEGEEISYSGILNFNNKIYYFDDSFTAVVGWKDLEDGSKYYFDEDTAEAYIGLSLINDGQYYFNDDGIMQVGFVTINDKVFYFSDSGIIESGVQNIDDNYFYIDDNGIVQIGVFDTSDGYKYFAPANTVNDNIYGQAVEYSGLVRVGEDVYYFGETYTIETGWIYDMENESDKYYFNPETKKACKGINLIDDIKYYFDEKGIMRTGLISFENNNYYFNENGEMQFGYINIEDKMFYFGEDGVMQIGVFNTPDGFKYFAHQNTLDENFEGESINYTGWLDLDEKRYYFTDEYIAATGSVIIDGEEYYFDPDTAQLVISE

Regarding `O=C(O)c1ccc(CN2C(=O)c3ccc(Cl)cc3NC(=O)[C@H]2Cc2ccccc2)cc1`, the Activity result (in the data set on Bifidobacterium longum; with Bacteroides fragilis; in data set [1]) was “Non-Toxic” throughout. Further, the result in the data set with Clostridioides difficile was inactive. Also, the IC50 on Toxin B was determined as 6.3 µM.
For `O=C(O)c1ccc(CN2C(=O)c3ccc(Cl)cc3NC(=O)[C@H]2Cc2ccncc2)cc1`, the Activity entry (in the data set with Bifidobacterium longum; in the data set with Bacteroides fragilis; in data set [1]) was “Non-Toxic” each time. Besides, the outcome with Clostridioides difficile was inactive. Besides, the IC50 at Toxin B was 18 µM.
`O=C(O)c1ccc(CN2C(=O)c3ccc(Cl)cc3NC(=O)[C@H]2CC2CCCCC2)cc1`: the Activity entry (in the data set with Bifidobacterium longum; with Bacteroides fragilis; in data set [1]) was “Non-Toxic” in each case. Besides, the outcome in the data set with Clostridioides difficile was inactive. The IC50 at Toxin B worked out at 84 µM.
As to `Cc1ccc2c(c1)NC(=O)[C@@H](Cc1ccc(Cl)c(Cl)c1)N(Cc1ccc(C(=O)O)cc1)C2=O`, the Activity entry (in the data set with Bifidobacterium longum; in the data set with Bacteroides fragilis; in data set [1]) was “Non-Toxic” each time. Besides, the result in the data set with Clostridioides difficile was inactive. The IC50 at Toxin B came out at 12 µM.
As for `O=C(Nc1ccccc1)c1ccc(CN2C(=O)c3ccc(Cl)cc3NC(=O)[C@H]2Cc2cccnc2)cc1`, the Activity entry (with Bifidobacterium longum; with Bacteroides fragilis; in data set [1]) was “Non-Toxic” in each case. For the same compound, the outcome in the data set on Clostridioides difficile was inactive. For the same compound, the IC50 at Toxin B came to 22 µM.
Consider `COc1ccc2c(c1)NC(=O)[C@@H](Cc1cccnc1)N(Cc1ccc(C(=O)O)cc1)C2=O`, for which the Activity result (in the data set with Bifidobacterium longum; in the data set with Bacteroides fragilis; in data set [1]) was “Non-Toxic” throughout. The outcome in the data set with Clostridioides difficile was inactive. Further, the IC50 at Toxin B was determined as 2.5 µM.
Turning to `N#Cc1cccc(C[C@@H]2C(=O)Nc3cc(Cl)ccc3C(=O)N2Cc2ccc(C(=O)O)cc2)c1`, the Activity entry (in the data set with Bifidobacterium longum; in the data set with Bacteroides fragilis; in data set [1]) was “Non-Toxic” throughout. Moreover, the outcome with Clostridioides difficile was inactive. Further, the IC50 at Toxin B was determined as 6.2 µM.
In the case of `O=C(Nc1ccncc1)c1ccc(CN2C(=O)c3ccc(Cl)cc3NC(=O)[C@H]2Cc2cccnc2)cc1`, the Activity result (with Bifidobacterium longum; in the data set with Bacteroides fragilis; in data set [1]) was “Non-Toxic” throughout. For the same compound, in the data set on Clostridioides difficile, the outcome was inactive. Besides, the IC50 on Toxin B is over 80 µM.
Consider `Cc1cccc(C[C@@H]2C(=O)Nc3cc(Cl)ccc3C(=O)N2Cc2ccc(C(=O)O)cc2)c1`, for which the Activity entry (in the data set on Bifidobacterium longum; in the data set with Bacteroides fragilis; in data set [1]) was “Non-Toxic” each time. The outcome with Clostridioides difficile was inactive. Further, the IC50 on Toxin B is 4.4 µM.
In the case of `NC(=O)c1ccc(CN2C(=O)c3ccc(Cl)cc3NC(=O)[C@@H]2Cc2ccc(Cl)c(Cl)c2)cc1`, the Activity entry (in the data set on Bifidobacterium longum; with Bacteroides fragilis; in data set [1]) was “Non-Toxic” each time. The result in the data set with Clostridioides difficile was inactive. Further, the IC50 at Toxin B amounted to 16 µM.
As to `O=C(O)c1ccc(CN2C(=O)c3ccc(Cl)cc3NC(=O)[C@H]2Cc2ccccc2F)cc1`, the Activity entry (in the data set with Bifidobacterium longum; in the data set on Bacteroides fragilis; in data set [1]) was “Non-Toxic” in each case. Also, the outcome with Clostridioides difficile was inactive. For the same compound, the IC50 at Toxin B is 30 µM.
Consider `O=C(O)c1ccc(CN2C(=O)c3ccccc3NC(=O)[C@H]2Cc2cccnc2)cc1`, for which the Activity entry (with Bifidobacterium longum; with Bacteroides fragilis; in data set [1]) was “Non-Toxic” each time. The outcome with Clostridioides difficile was inactive. In addition, the IC50 on Toxin B came to 46 µM.
Consider `Cc1ccc(C[C@@H]2C(=O)Nc3cc(Cl)ccc3C(=O)N2Cc2ccc(C(=O)O)cc2)cc1`, for which the Activity entry (in the data set with Bifidobacterium longum; with Bacteroides fragilis; in data set [1]) was “Non-Toxic” in each case. In the data set with Clostridioides difficile, the outcome was inactive. The IC50 at Toxin B stood at 32 µM.
